According to patent publication US7557133B2, “Caspase inhibitors containing isoxazoline ring” (LG Life Sciences Ltd., priority 2003, dated 2009):
Marks after values point to notes of the source that are not given here.

Assays:
caspase-8 = molecular target: T1, caspase-8 (Homo sapiens, UniProt Q14790); assay: Caspase-8 inhibitory effect (fluorescent substrate AcDEVD-AFC); format: biochemical
T1 construct: p10 and p20 subunits (Thornberry, N. A. et al, Nature, 1992, 356, 768) were expressed in E. coli; made in house; host or cells: E. coli
T1 sequence (Q14790 217-374 limits assumed, species assumed): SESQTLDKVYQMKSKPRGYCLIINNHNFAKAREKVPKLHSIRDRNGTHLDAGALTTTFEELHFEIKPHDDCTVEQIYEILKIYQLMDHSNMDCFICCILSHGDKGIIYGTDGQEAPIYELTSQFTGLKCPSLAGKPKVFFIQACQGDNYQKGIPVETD
T1 sequence (Q14790 385-479 limits assumed, species assumed): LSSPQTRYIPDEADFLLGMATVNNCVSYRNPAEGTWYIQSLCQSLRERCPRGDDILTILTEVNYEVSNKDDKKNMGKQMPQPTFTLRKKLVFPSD
Procedure, shortened: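 E. coli–expressed p10/p20 caspase-8, 2.1 nM, with 50 μM Ac-DEVD-AFC at 25 °C in 50 mM HEPES pH 7.50, sucrose, CHAPS, NaCl, EDTA, 10 mM DTT over various inhibitor concentrations. Initial rates by fluorescence (ex 405 / em 505); Ki from Lineweaver-Burk plot, Kobs from time-course cleavage equation.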

rheumatic arthritis = assay: Therapeutic effect for rheumatic arthritis in rats (type II collagen); format: in vivo, rat
Procedure: Female Lewis rats (7 weeks, Charles River, Japan) were kept under the conditions of 22 °C, 55% of relative humidity, and light-darkness cycle of 12 hours. Food and water were supplied ad libitum. Type II collagen (bovine) was dissolved in 0.05M acetic acid in a concentration of 2 mg/ml at 4[…], and the same amount of Complete Freund's adjuvant was added to emulsify the solution at 4[…]. 0.1 ml of thus emulsified solution was subcutaneously injected into the rattail of the Lewis rats. After 7 days, the emulsified solution was injected again in the same manner. From the date on which the second emulsified solution was injected, vehicle (a mixture of PEG400:ethanol:Tween80=15:7.5:2.5 was diluted by ten times with phosphate buffer) wherein the test compound is dissolved or the vehicle alone was orally administered into the rats every day. On Day 14 from the first injection of the collagen-containing emulsified solution, the right rear foot volume was measured again by plethysmometer (see Table 4). The edema inhibition (%) was determined by the following Equation 3. […]
Further, p-value was calculated by Student t-test from the increased foot volume on Day 14 to confirm the significance.

caspase-1 = molecular target: T2, caspase-1 (Homo sapiens, UniProt P29466); assay: Caspase-1 inhibitory effect (fluorescent substrate AcYVAD-AFC); format: biochemical; settings: pH 7.5; 25° C., 50 μM AcYVAD-AFC, 10 nM caspase-1; read-out: Caspase-1 Kobs/[I] (converted)
T2 construct: p10 and p20 subunits (Thornberry, N. A. et al, Nature, 1992, 356, 768) were expressed in E. coli; made in house; host or cells: E. coli
T2 sequence (P29466 120-297 limits assumed): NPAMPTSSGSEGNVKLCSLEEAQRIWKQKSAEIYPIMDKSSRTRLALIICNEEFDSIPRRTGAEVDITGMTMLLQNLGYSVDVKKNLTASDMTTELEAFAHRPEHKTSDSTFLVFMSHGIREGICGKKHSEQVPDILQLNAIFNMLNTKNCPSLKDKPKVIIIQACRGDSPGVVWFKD
T2 sequence (P29466 317-404 limits assumed): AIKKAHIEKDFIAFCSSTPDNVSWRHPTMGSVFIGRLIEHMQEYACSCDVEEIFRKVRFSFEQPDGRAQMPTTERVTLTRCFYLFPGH
Procedure: Caspase-1 and caspase-8 known as cysteine proteases in the form of α2β2 were expressed, purified, and activated by modifying a method known in Thornberry, N. A. et al, Nature, 1992, 356, 768. Thornberry, N. A. Methods in Enzymology, 1994, 244, 615. Walker, N. P. C. et al. Cell, 1994, 78, 343, and caspase-9 was also purified by a similar method, and the inhibitory activity against them was tested. Briefly describing, p10 and p20 subunits (Thornberry, N. A. et al, Nature, 1992, 356, 768) were expressed in E. coli and purified by nickel column and anionic exchange chromatography to give caspase-1, caspase-8 and caspase-9. The fluorescent substrate AcYVAD-AFC for thus obtained caspase-1, AcDEVD-AFC for caspase-8, and AcLEHD-AFC for caspase-9 were used for determining specific activity of the synthesized inhibitors. The enzyme reaction was carried out at 25° C. with various concentrations of the inhibitors in a buffer solution containing 50 mM HEPES(pH 7.50), 10% (w/v) sucrose, 0.1% (w/v) CHAPS, 100 mM NaCl, 1 mM EDTA, and 10 mM DTT in the presence of 50 μM AcYVAD-AFC for 10 nM caspase-1, 50 μM AcDEVD-AFC for 2.1 nM caspase-8, and 150 μM AcLEHD-AFC for 200 nM caspase-9. The inhibitory constants Ki and Kobs of the inhibitors were determined by measuring the reaction velocity with the time lapse using a fluorescent spectrometer and by obtaining the initial rate constant. Ki was calculated from the Lineweaver Burk Plot, and Kobs from the following Equation 1. Kobs=−ln(1−At/Aoo)/t Equation 1
At means cleavate rate (%) at time t, and
Aoo means the maximum cleavage rate (%).
Spectra MAX GeminiXS Fluorescent Spectrometer of Molecular Device Co. was used at the excitation wavelength of 405 nm and the emission wavelength of […].

foot edema = assay: Antiphlogistic effect in rats (carrageenan foot edema); format: in vivo, rat; settings: 3 hours after carrageenan
Procedure: Male SD rats (6 weeks, Orient) were kept under the conditions of 22 °C, 55% of relative humidity, and light-darkness cycle of 12 hours. Food and water were supplied ad libitum. Before the induction of edema, the foot volume of each rat was measured by plethysmometer. Before the induction of edema, vehicle (a mixture of PEG400: ethanol:Tween80=15:7.5:2.5 was diluted by ten times with phosphate buffer) wherein the test compound is dissolved or the vehicle alone was orally administered into the rats. Carrageenan (gamma) was dissolved in the concentration of 1% in saline, and subcutaneously injected into the right rear foot of the rats in the dosage of 100 μl. After 3 hours, the right foot volume was measured again by plethysmometer. The effect of the test compound was shown by edema inhibition (%) (see Table 3). The edema inhibition (%) was calculated according to the following Equation 2. Edema Inhibition (%)=100×(Average of the increased foot volume in the vehicle-administered group−Increased foot volume in the test compound-administered group)/Average of the increased foot volume in the vehicle-administered group Equation 2

[1] = system: Jurkat cell (ATCC TIB-152); assay: Jurkat cell apoptosis by Fas antibody, WST-1 method; format: cell-based; settings: for IC50: apoptosis using Fas antibody, WST-1
Procedure, shortened: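 Jurkat cells (ATCC TIB-152) induced to apoptosis with Fas antibody in the presence of inhibitor. Viable cells quantified by WST-1 colour change, absorbance at 440 nm.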

Question: CC(C)[C@@]1(C(=O)NC(CC(=O)O)C(=O)CF)CC(c2nccc3ccccc23)=NO1 (stereo partly drawn) [Iii, 5-Fluoro-3-({[(5R)-5-isopropyl-3-(1-isoquinolinyl)-4,5-dihydro-5-isoxazolyl]carbonyl}amino)-4-oxopentanoic acid] was tested. Which “increased inhibitory activity against caspase-8 compared with LB84068MP” value (caspase-8) did it give?
Answer: Its value is at least 10 times.

Question: And the kinact/KI (caspase-8; pH 7.5, 25° C., 50 μM AcDEVD-AFC, 2.1 nM caspase-8, read-out: Caspase-8 Kobs/[I] (converted))?
Answer: Its kinact/KI is 217000 M⁻¹ s⁻¹.

Question: What about the “Foot volume (ml) Day 14 Average” value (rheumatic arthritis; 10 mg/kg oral every day, Day 14) of the same molecule?
Answer: Its value is 1.394* ml.

Question: What about the “Foot volume (ml) Day 0 Average” value (rheumatic arthritis; 10 mg/kg oral group, Day 0) of the same molecule?
Answer: The value was 1.134 mL.

Question: And the kinact/KI (caspase-1)?
Answer: Its kinact/KI is 18300 M⁻¹ s⁻¹.

Question: And the “Edema inhibition effect (%) Average” value (foot edema; 30 mg/kg oral)?
Answer: The value was 20.7%.

Question: And the “Edema inhibition effect (%) Average” value (foot edema; 100 mg/kg oral)?
Answer: Its value is 22.7%.

Question: And the “increased inhibitory activity against Jurkat cell compared with LB84068MP” value [1]?
Answer: The value was at least 10 times.

Question: What about the IC50 ([1]; Homo sapiens, Jurkat) of the same molecule?
Answer: The IC50 was 100 nM.

Question: What about the IC50 [1] of the same molecule?
Answer: The IC50 was at most 100 nM.
